Publication PMC6060382, “Inhibition of α-, β-, γ-, and δ-carbonic anhydrases from bacteria and diatoms with N′-aryl-N-hydroxy-ureas” (Journal of Enzyme Inhibition and Medicinal Chemistry, 2018)
Like-named read-outs stand apart in the source and are kept apart here.

Experiments:
Test in all cases: stopped-flow CO2 hydrase assay
[1] = molecular target: T1, PgiCAγ; assay type: biochemical, Porphyromonas gingivalis; settings: CO2 hydration, 10 mM Tris pH 8.3, 0.1 M Na2SO4, 25 °C, 15 min preincubation
T1 construct: gene PgiCA

[2] = molecular target: T2, TweCAδ (Conticribra weissflogii, UniProt Q5U9J1); assay type: biochemical; settings: CO2 hydration, 10 mM HEPES pH 7.5, 0.1 M Na2SO4, 25 °C, 15 min preincubation
T2 construct: gene ca1
T2 sequence (Q5U9J1 1-281): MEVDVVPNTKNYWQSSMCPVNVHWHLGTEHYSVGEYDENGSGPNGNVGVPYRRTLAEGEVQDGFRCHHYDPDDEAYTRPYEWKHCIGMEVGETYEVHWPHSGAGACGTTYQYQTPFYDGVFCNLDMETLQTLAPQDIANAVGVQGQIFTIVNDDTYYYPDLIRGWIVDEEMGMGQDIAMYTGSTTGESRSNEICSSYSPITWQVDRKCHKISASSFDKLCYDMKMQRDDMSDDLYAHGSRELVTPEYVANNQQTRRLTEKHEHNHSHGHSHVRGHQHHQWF

[3] = molecular target: T3, VchCAβ (Vibrio cholerae, UniProt Q9KUD6); assay type: biochemical
T3 construct: gene VC_0586
T3 sequence (Q9KUD6 1-222): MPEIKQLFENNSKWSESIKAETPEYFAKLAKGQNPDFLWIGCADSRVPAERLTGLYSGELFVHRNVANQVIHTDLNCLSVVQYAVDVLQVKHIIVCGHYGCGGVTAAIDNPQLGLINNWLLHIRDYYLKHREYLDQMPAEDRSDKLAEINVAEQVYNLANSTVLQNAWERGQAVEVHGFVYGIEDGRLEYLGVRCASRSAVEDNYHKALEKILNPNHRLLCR

[4] = molecular target: T4, VchCAγ (Vibrio cholerae, UniProt Q9KVT1); assay type: biochemical; settings: CO2 hydration, 10 mM Tris pH 8.3, 0.1 M Na2SO4, 25 °C, 15 min preincubation
T4 construct: gene VC_0058
T4 sequence (Q9KVT1 1-184): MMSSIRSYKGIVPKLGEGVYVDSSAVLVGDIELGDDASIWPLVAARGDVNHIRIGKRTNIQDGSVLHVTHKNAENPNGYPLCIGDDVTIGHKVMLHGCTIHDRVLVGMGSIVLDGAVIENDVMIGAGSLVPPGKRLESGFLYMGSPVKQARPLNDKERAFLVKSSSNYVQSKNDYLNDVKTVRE

[5] = molecular target: T5, VchCAα (Vibrio cholerae, UniProt Q9KMP6); assay type: biochemical; settings: read-out: VchCAα; CO2 hydration, 10 mM HEPES pH 7.5, 0.1 M Na2SO4, 25 °C, 15 min preincubation
T5 construct: gene VC_A0274
T5 sequence (Q9KMP6 21-239 limits assumed): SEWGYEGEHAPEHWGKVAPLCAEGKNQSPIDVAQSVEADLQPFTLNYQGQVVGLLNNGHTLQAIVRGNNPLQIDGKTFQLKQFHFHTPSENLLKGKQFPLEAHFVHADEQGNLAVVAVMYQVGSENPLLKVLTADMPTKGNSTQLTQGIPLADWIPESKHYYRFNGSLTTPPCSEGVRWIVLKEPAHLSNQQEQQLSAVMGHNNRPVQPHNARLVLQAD

[6] = molecular target: T6, PgiCAβ (Porphyromonas gingivalis, UniProt B2RL07); assay type: biochemical; settings: CO2 hydration, 10 mM Tris pH 8.3, 0.1 M Na2SO4, 25 °C, 15 min preincubation
T6 construct: gene PGN_1533
T6 sequence (B2RL07 19-242): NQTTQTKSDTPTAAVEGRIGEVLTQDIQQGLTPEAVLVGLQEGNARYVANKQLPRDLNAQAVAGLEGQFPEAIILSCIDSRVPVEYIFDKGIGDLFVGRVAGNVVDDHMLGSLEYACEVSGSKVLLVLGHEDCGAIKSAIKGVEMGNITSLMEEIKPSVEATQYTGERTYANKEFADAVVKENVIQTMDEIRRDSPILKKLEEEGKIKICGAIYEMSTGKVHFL

Row | SMILES | Ki ([1]; read-out: PgiCAγ) [µM] | Ki ([2]; read-out: VchCAγ) [µM] | Ki ([3]; read-out: VchCAβ) [µM] | Ki ([4]; read-out: VchCAγ) [µM] | Ki [5] [µM] | Ki ([6]; read-out: VchCAγ) [µM] | Ki ([2]; read-out: TweCAδ) [µM] | Ki ([2]; read-out: PgiCAβ) [µM] | Ki ([6]; read-out: PgiCAβ) [µM] | Ki ([1]; read-out: VchCAα) [µM] | Ki ([2]; read-out: VchCAα) [µM] | Ki ([4]; read-out: VchCAα) [µM] | Ki ([6]; read-out: VchCAα) [µM] | Ki ([3]; read-out: VchCAα) [µM]
1 | O=C(NO)Nc1ccccc1 [compound 1, 1: H] | 6.42 | > 10 | 1.81 | > 10 | 7.26 | > 10 |  |  |  |  |  |  |  | 
2 | Cc1ccc(NC(=O)NO)cc1 [compound 2, 2: 4-CH3] | 0.298 | > 10 | 0.483 | > 10 | 0.111 | > 10 |  |  |  |  |  |  |  | 
3 | Cc1ccccc1NC(=O)NO [compound 3, 3: 2-CH3] | 4.21 | > 10 | 0.377 | > 10 | 0.829 | > 10 |  |  |  |  |  |  |  | 
4 | O=C(NO)Nc1ccc(Cl)cc1 [compound 4, 4: 4-Cl] | 0.934 |  | 0.541 | > 10 | 4.41 | > 10 | 8.74 |  |  |  |  |  |  | 
5 | O=C(NO)Nc1ccccc1Cl [compound 5, 5: 2-Cl] | 3.03 | > 10 | 0.0642 | > 10 | 5.94 | > 10 |  |  |  |  |  |  |  | 
6 | O=C(NO)Nc1cccc(Cl)c1 [compound 6, 6: 3-Cl] | 0.819 | > 10 | 0.0603 | > 10 | 4 | > 10 |  |  |  |  |  |  |  | 
7 | O=C(NO)Nc1ccc([N+](=O)[O-])cc1 [compound 7, 7: 4-O2N] | 2.7 | > 10 | 0.0541 | > 10 | 0.509 | > 10 |  |  |  |  |  |  |  | 
8 | O=C(NO)Nc1ccccc1[N+](=O)[O-] [compound 8, 8: 2-O2N] | 0.0823 |  | 0.0525 | 5.69 | 0.536 |  |  | > 10 | > 10 |  |  |  |  | 
9 | Cc1ccc(C)c(NC(=O)NO)c1 [compound 9, 9: 2,5-Me2] | 0.0844 |  | 0.0593 | 5.5 | 0.0975 |  |  | > 10 | > 10 |  |  |  |  | 
10 | O=C(NO)Nc1ccc(F)cc1 [compound 10, 10: 4-F] |  |  |  |  | > 10 |  |  |  |  | > 10 | > 10 | > 10 | > 10 | 
11 | CCOC(=O)c1cccc(NC(=O)NO)c1 [compound 11, 11: 3-EtOOC] |  |  |  |  | > 10 |  | 8.49 |  |  | > 10 |  | > 10 | > 10 | > 10
12 | Cc1cc(C)cc(NC(=O)NO)c1 [compound 12, 12: 3,5-Me2] | 5.49 |  |  |  | > 10 |  | 0.0578 |  |  |  |  | > 10 | > 10 | > 10
13 | CCOc1ccccc1NC(=O)NO [compound 13, 13: 2-EtO] | > 10 |  |  |  | > 10 |  | 0.0333 |  |  |  |  |  | > 10 | > 10
14 | CSc1cccc(NC(=O)NO)c1 [compound 14, 14: 3-MeS] | 0.0598 |  |  |  | > 10 |  | 0.052 |  |  |  |  |  | > 10 | > 10
15 | Cc1cc(NC(=O)NO)ccc1F [compound 15, 15: 4-F-3-Me] | 2.88 |  |  |  | > 10 |  | 3.94 |  |  |  |  | > 10 | > 10 | > 10
16 | O=C(NO)Nc1c(F)c(F)c(F)c(F)c1F [compound 16, 16: F5] | 3.48 |  |  |  | > 10 |  | 3.41 |  |  |  |  | > 10 | > 10 | > 10
17 | O=C(NO)Nc1ccc(C(F)(F)F)cc1 [compound 17, 17: 4-CF3] | 2.63 |  |  |  | > 10 |  | 4.64 |  |  |  |  | > 10 | > 10 | > 10
18 | O=C(NO)Nc1ccc(C(F)(F)F)cc1Cl [compound 18, 18: 4-CF3-2-Cl] |  |  |  | 5.43 | > 10 |  | 0.856 |  |  | > 10 |  |  |  | > 10
19 | COc1ccccc1NC(=O)NO [compound 19, 19: 2-MeO] |  |  |  | 4.75 | > 10 |  | 2.88 |  |  | > 10 |  |  |  | > 10
20 | O=C(NO)Nc1ccc(Oc2ccccc2)cc1 [compound 20, 20: 4-PhO] |  |  |  |  | > 10 |  | 0.761 |  |  | > 10 |  | > 10 |  | > 10
